Structures can show the parent of a compound that is named as a salt.
Assays:
Experiment in all cases: PDSP primary radioligand binding assay
Dopamine D5 = molecular target: T1, Dopamine D5 (Homo sapiens, UniProt P21918); details: compound 10 μM
T1 construct: expressed in transfected cells
Description: (§1) Primary and secondary radioligand binding assays are performed. In general, the primary assay is run at very high ligand (compound) concentration as a broad screen to determine whether a compound binds to a particular receptor. If greater than 50% inhibition at 10 μM (high concentration of compound) at a particular receptor is determined, a secondary assay is performed on that receptor. Data from the secondary assay is the binding affinity (Ki value).
(§2) A solution of the compound to be tested is prepared as a 1 mg/ml stock in Standard Binding Buffer or dimethyl sulfoxide (DMSO) according to its solubility. A similar stock of a reference compound (positive control) is also prepared.
(§3) Radioligand (radioligands are presented in Table 39) is diluted to five times the assay concentration (assay concentrations are presented in Table 39) in Standard Binding Buffer. Typically, the assay concentration of radioligand is a value between one half the KD and the KD of a particular radioligand at its target. Aliquots (50 μL) of radioligand are dispensed into the wells of a 96-well plate (see FIG. 11) containing 100 μL of Standard Binding Buffer (Table 40). Then, duplicate 50 μL aliquots of the test and reference compound dilutions are added (see FIG. 11). According to FIG. 11, increasing concentrations (from left to right) of reference or test compound (diluted in buffer) are added (50 μL aliquots, in duplicate) from 5× stock solutions to wells containing 50 μL of 5× radioligand (fixed concentration, prepared in buffer) and 100 μL of buffer. Finally, 50 μL of receptor-containing membrane homogenate (5× suspension in buffer) are added to achieve a final assay volume of 250 μL. Final concentrations of reference or test compound are listed above the columns in FIG. 11.
(§4) Finally, crude membrane fractions of cells expressing recombinant target (prepared from 10 cm plates by harvesting phosphate buffered saline (PBS)-rinsed monolayers, resuspending and lysing in chilled, hypotonic 50 mM Tris-HCl, pH 7.4, centrifuging at 20,000×g, decanting the supernatant and storing at −80° C.; typically, one 10 cm plate provides sufficient material for 24 wells) are resuspended in 3 mL of chilled Standard Binding Buffer and homogenized by several passages through a 26 gauge needle, and then 50 μL are dispensed into each well.
(§5) The 250 μL reactions are incubated at room temperature and shielded from light (to prevent photolysis of light-sensitive ligands) for 1.5 hours, then harvested by rapid filtration onto Whatman GF/B glass fiber filters pre-soaked with 0.3% polyethyleneimine using a 96-well Brandel harvester. Four rapid 500 μL washes are performed with chilled Standard Binding Buffer to reduce non-specific binding. Filters are placed in 6 mL scintillation tubes and allowed to dry overnight. The next day, 4 mL of EcoScint scintillation cocktail (National Diagnostics) are added to each tube. The tubes are capped, labeled, and counted by liquid scintillation counting. For higher throughput assays, bound radioactivity is harvested onto 0.3% polyethyleneimine-treated, 96-well filter mats using a 96-well Filtermate harvester. The filter mats are dried, then scintillant is melted onto the filters, and the radioactivity retained on the filters is counted in a Microbeta scintillation counter.
(§6) Raw data (dpm) representing total radioligand binding (i.e., specific+non-specific binding) are plotted as a function of the logarithm of the molar concentration of the competitor (i.e., test or reference compound). […]

Dopamine receptor D2 = molecular target: T2, Dopamine receptor D2 (Homo sapiens, UniProt P14416); details: compound 10 μM; for inhibition at 10 µM: n=4, read-out: mean percentage inhibition, Dopamine receptor D2
T2 construct: expressed in transfected cells
Description: as §1, §2, §3, §4, §5, §6

Dopamine receptor D3 = molecular target: T3, Dopamine receptor D3 (Rattus norvegicus, UniProt P19020); details: compound 10 μM; for inhibition at 10 µM: n=4, read-out: mean percentage inhibition, Dopamine receptor D3
T3 construct: expressed in transfected cells
Description: as §1, §2, §3, §4, §5, §6

Dopamine receptor D4 = molecular target: T4, Dopamine receptor D4 (Homo sapiens, UniProt P21917); details: compound 10 μM, n=4, read-out: mean percentage inhibition, Dopamine receptor D4
T4 construct: expressed in transfected cells
T4 sequence (P21917 1-419): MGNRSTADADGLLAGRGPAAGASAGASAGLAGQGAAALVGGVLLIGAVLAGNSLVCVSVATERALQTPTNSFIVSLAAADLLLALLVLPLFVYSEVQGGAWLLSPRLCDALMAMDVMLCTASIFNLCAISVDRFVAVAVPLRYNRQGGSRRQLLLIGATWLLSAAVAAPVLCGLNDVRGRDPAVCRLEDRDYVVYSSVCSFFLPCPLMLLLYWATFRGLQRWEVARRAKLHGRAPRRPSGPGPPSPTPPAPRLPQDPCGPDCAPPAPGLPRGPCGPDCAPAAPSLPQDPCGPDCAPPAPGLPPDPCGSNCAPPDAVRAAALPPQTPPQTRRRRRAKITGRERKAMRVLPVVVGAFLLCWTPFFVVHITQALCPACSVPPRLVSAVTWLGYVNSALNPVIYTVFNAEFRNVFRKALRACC
Description: as §1, §2, §3, §4, §5, §6

Histamine receptor H2 = molecular target: T5, Histamine receptor H2 (Homo sapiens, UniProt P25021); details: compound 10 μM; for mean percentage inhibition, Histamine receptor H2: n=4, hydrochloride, 10 µM
T5 construct: expressed in transfected cells
Description: as §1, §2, §3, §4, §5, §6

T3 sequence (P19020 whole entry): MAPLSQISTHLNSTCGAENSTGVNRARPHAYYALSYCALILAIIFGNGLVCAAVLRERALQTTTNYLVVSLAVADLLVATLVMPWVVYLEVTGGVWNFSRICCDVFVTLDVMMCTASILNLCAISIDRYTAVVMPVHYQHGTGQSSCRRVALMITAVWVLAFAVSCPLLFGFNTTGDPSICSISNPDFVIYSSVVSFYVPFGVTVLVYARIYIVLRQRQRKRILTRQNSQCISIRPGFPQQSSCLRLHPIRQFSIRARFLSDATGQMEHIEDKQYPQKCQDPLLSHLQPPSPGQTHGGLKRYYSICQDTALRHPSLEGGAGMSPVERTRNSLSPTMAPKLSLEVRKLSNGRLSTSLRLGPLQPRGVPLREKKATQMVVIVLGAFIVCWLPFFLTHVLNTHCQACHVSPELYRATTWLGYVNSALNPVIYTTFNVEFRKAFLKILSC
T2 sequence (P14416 whole entry): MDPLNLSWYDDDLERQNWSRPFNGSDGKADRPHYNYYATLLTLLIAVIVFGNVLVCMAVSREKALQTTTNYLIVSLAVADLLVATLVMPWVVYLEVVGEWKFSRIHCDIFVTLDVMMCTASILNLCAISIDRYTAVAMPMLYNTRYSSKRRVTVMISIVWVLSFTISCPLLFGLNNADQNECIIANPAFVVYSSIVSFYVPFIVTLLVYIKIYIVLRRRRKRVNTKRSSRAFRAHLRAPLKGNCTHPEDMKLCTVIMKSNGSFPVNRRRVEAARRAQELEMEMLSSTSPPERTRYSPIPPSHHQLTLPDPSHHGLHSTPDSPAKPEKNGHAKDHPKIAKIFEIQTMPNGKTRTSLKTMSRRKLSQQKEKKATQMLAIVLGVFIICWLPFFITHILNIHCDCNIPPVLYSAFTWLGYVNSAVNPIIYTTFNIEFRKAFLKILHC
T5 sequence (P25021 whole entry): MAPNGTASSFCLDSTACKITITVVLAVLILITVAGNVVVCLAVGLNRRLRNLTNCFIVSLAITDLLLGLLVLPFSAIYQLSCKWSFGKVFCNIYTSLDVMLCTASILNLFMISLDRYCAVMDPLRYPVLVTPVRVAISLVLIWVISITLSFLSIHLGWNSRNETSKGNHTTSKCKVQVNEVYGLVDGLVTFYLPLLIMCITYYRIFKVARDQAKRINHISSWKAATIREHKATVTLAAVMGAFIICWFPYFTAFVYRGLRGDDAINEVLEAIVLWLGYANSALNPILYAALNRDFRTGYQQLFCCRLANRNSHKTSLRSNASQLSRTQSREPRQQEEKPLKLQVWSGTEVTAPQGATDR
T1 sequence (P21918 whole entry): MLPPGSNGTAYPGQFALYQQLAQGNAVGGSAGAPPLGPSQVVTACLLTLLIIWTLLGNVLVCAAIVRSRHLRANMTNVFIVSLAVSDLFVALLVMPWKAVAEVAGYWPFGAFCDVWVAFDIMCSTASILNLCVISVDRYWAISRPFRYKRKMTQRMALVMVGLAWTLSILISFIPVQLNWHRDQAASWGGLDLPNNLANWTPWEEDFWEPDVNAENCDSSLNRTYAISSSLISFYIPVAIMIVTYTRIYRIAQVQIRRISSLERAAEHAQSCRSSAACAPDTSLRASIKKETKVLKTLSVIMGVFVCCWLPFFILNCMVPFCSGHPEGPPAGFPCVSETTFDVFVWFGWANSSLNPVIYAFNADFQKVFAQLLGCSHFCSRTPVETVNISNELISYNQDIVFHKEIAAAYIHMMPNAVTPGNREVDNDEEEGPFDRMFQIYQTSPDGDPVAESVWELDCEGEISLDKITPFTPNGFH

mean percentage inhibition, Dopamine receptor D3 (Dopamine receptor D3; n=4, hydrochloride, 10 µM) | inhibition at 10 µM (Histamine receptor H2; n=4, read-out: mean percentage inhibition, Histamine receptor H2) | Structure (SMILES) | binding at 10 μM, Dopamine D5 (Dopamine D5) | inhibition at 10 µM (Dopamine receptor D2) | inhibition at 10 µM (Dopamine receptor D3) | inhibition at 10 µM (Dopamine receptor D4) | mean percentage inhibition, Histamine receptor H2 (Histamine receptor H2) | mean percentage inhibition, Dopamine receptor D2 (Dopamine receptor D2; n=4, hydrochloride, 10 µM)
31.8% | < 50% | CCCOc1cc2c(cn1)[nH]c1ccncc12 [Compound 2, 8-Propoxypyridino[4′,3′-5,4]pyrrolo[3,2-c]pyridine hydrochloride] | < 50% | > 50% | < 50% | > 50% | 31.4% | –
– | – | CCCOc1cc2c(cn1)[nH]c1cnccc12 [Compound 4, 3-Propoxy pyridino[4′,3′-4,5]pyrrolo[2,3-c]pyridine hydrochloride] | < 50% | > 50% | 24.1% | -18.1% | 26.8% | 50%
